# ChEMBL document CHEMBL4354844, “Discovery of Balovaptan, a Vasopressin 1a Receptor Antagonist for the Treatment of Autism Spectrum Disorder” (J Med Chem, 2020)
# Activity calls are given as the source filed them. No cut-off for these calls is given here.
# Columns and labels:
# [1] = Oral bioavailability in cynomolgus monkey; type: ADME, organism-based, Macaca fascicularis; settings: in vivo
# [2] = Oral bioavailability in rat; type: ADME, organism-based; settings: in vivo
# Rattus norvegicus [3] = assay: Neuroprotective activity in stress hyperresponsive Fischer F344 rat assessed as change in perfusion in inferior colliculi at 30 mg/kg, iv administered as bolus dose via catheter by ASL-based MRI analysis; type: functional, organism-based
# [4] = Volume of distribution in dog; type: ADME, Canis lupus familiaris; settings: in vivo
# Rattus norvegicus [5] = assay: In vivo receptor occupancy at V1a receptor in stress hyperresponsive Fischer F344 rat at 30 mg/kg, iv administered as bolus dose via catheter; type: functional
# Rattus norvegicus [6] = assay: Neuroprotective activity in stress hyperresponsive Fischer F344 rat assessed as change in perfusion in dorsal hippocampus at 30 mg/kg, iv administered as bolus dose via catheter by ASL-based MRI analysis; type: functional, organism-based
# Rattus norvegicus [7] = assay: Neuroprotective activity in stress hyperresponsive Fischer F344 rat assessed as increase in perfusion in entorhinal piriform cortex at 30 mg/kg, iv administered as bolus dose via catheter by ASL-based MRI analysis; type: functional, organism-based
# [8] = Selectivity ratio of Kb for antagonist activity at human […] receptor to Kb for antagonist activity at human Gq5s-coupled V1a receptor expressed in CHO cells
# Rattus norvegicus [9] = assay: Neuroprotective activity in stress hyperresponsive Fischer F344 rat assessed as change in perfusion in caudate putamen at 30 mg/kg, iv administered as bolus dose via catheter by ASL-based MRI analysis; type: functional, organism-based
# Rattus norvegicus [10] = assay: Neuroprotective activity in stress hyperresponsive Fischer F344 rat assessed as change in perfusion in primary motor cortex at 30 mg/kg, iv administered as bolus dose via catheter by ASL-based MRI analysis relative to control; type: functional
# Rattus norvegicus [11] = assay: Neuroprotective activity in iv dosed stress hyperresponsive Fischer F344 rat assessed as improvement in neural activity pattern administered as bolus dose via catheter by ASL-based MRI analysis; type: functional, organism-based
# Rattus norvegicus [12] = assay: Neuroprotective activity in stress hyperresponsive Fischer F344 rat assessed as increase in perfusion in amygdala at 30 mg/kg, iv administered as bolus dose via catheter by ASL-based MRI analysis; type: functional, organism-based
# Homo sapiens = species: Homo sapiens; assay: Selectivity ratio of Kb for antagonist activity at recombinant human 5HT2B receptor expressed in CHOK1 cells to Kb for antagonist activity at human Gq5s-coupled V1a receptor expressed in CHO cells; type: cell-based
# Rattus norvegicus [13] = assay: Neuroprotective activity in stress hyperresponsive Fischer F344 rat assessed as change in perfusion in visual cortex at 30 mg/kg, iv administered as bolus dose via catheter by ASL-based MRI analysis relative to control; type: functional
# [14] = Volume of distribution in cynomolgus monkey; type: ADME, Macaca fascicularis; settings: in vivo
# [15] = Volume of distribution in rat; type: ADME; settings: in vivo
# Rattus norvegicus [16] = assay: Neuroprotective activity in stress hyperresponsive Fischer F344 rat assessed as increase in perfusion in raphe nuclei at 30 mg/kg, iv administered as bolus dose via catheter by ASL-based MRI analysis; type: functional, organism-based
# [17] = target: 5-hydroxytryptamine receptor 2B (Homo sapiens) (UniProt P41595); assay: Antagonist activity at recombinant human 5HT2B receptor expressed in CHOK1 cells assessed as inhibition of serotonin-induced inositol phosphate production measured after 30 mins by HTRF assay; type: functional, cell-based
# 5-hydroxytryptamine receptor 2B (Homo sapiens), sequence (P41595 whole entry): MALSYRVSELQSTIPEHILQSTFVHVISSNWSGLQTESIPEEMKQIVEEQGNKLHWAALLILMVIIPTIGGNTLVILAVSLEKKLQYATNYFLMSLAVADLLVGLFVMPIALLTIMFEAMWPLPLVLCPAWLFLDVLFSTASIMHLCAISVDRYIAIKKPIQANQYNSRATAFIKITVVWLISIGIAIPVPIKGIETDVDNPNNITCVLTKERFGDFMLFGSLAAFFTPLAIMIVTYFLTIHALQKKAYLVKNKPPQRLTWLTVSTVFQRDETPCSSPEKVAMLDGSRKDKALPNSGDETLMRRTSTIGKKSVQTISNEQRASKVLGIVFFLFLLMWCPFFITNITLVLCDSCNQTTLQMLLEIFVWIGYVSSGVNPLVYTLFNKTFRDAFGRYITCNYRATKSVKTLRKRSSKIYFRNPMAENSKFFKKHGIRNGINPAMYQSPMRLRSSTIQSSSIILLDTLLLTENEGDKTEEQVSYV
# [18] = Selectivity ratio of Kb for antagonist activity at human V2 receptor to Kb for antagonist activity at human Gq5s-coupled V1a receptor expressed in CHO cells
# Rattus norvegicus [19] = assay: Neuroprotective activity in stress hyperresponsive Fischer F344 rat assessed as increase in perfusion in substantia nigra at 30 mg/kg, iv administered as bolus dose via catheter by ASL-based MRI analysis; type: functional, organism-based
# [20] = target: Vasopressin V1a receptor (Homo sapiens) (UniProt P37288); assay: Antagonist activity at human Gq5s-coupled V1a receptor expressed in CHO cells assessed as inhibition of vasopressin-induced calcium flux preincubated for 20 mins followed by vasopressin addition and measured for 5 mins by fluo-4-AM dye based FLIPR assay; type: functional, cell-based
# Vasopressin V1a receptor (Homo sapiens), sequence (P37288 whole entry, looked up, the tested form may be a part): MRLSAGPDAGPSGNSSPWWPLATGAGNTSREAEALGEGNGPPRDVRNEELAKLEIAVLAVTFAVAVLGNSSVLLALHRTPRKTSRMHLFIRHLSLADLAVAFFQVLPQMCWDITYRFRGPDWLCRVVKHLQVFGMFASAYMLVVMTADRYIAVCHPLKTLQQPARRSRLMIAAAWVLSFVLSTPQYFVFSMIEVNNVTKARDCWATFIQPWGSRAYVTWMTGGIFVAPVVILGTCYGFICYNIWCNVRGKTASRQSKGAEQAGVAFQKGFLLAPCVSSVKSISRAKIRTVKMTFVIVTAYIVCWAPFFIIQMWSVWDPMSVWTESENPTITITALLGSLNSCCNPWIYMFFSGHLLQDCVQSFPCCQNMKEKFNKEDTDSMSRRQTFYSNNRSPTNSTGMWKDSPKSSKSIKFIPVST
# Rattus norvegicus [21] = assay: Neuroprotective activity in stress hyperresponsive Fischer F344 rat assessed as increase in perfusion in ventral tegmental area at 30 mg/kg, iv administered as bolus dose via catheter by ASL-based MRI analysis; type: functional, organism-based
# Rattus norvegicus [22] = assay: Neuroprotective activity in stress hyperresponsive Fischer F344 rat assessed as change in perfusion in superior colliculi at 30 mg/kg, iv administered as bolus dose via catheter by ASL-based MRI analysis; type: functional, organism-based
# [23] = Protein binding in human plasma assessed as unbound fraction; type: ADME, cell-free
# Rattus norvegicus [24] = assay: Neuroprotective activity in stress hyperresponsive Fischer F344 rat assessed as change in perfusion in medial prefrontal at 30 mg/kg, iv administered as bolus dose via catheter by ASL-based MRI analysis relative to control; type: functional
# [25] = target: MDR1 (ABCB1, P-glycoprotein) (Homo sapiens, UniProt P08183); assay: Substrate activity at human MDR1 expressed in LLC-PK1 cells assessed as efflux ratio of permeability at 1 uM measured after 3.5 hrs by lucifer yellow based scintillation counting or HPLC method; type: ADME, cell-based
# MDR1 (ABCB1, P-glycoprotein), sequence (P08183 whole entry, the tested form may be a part): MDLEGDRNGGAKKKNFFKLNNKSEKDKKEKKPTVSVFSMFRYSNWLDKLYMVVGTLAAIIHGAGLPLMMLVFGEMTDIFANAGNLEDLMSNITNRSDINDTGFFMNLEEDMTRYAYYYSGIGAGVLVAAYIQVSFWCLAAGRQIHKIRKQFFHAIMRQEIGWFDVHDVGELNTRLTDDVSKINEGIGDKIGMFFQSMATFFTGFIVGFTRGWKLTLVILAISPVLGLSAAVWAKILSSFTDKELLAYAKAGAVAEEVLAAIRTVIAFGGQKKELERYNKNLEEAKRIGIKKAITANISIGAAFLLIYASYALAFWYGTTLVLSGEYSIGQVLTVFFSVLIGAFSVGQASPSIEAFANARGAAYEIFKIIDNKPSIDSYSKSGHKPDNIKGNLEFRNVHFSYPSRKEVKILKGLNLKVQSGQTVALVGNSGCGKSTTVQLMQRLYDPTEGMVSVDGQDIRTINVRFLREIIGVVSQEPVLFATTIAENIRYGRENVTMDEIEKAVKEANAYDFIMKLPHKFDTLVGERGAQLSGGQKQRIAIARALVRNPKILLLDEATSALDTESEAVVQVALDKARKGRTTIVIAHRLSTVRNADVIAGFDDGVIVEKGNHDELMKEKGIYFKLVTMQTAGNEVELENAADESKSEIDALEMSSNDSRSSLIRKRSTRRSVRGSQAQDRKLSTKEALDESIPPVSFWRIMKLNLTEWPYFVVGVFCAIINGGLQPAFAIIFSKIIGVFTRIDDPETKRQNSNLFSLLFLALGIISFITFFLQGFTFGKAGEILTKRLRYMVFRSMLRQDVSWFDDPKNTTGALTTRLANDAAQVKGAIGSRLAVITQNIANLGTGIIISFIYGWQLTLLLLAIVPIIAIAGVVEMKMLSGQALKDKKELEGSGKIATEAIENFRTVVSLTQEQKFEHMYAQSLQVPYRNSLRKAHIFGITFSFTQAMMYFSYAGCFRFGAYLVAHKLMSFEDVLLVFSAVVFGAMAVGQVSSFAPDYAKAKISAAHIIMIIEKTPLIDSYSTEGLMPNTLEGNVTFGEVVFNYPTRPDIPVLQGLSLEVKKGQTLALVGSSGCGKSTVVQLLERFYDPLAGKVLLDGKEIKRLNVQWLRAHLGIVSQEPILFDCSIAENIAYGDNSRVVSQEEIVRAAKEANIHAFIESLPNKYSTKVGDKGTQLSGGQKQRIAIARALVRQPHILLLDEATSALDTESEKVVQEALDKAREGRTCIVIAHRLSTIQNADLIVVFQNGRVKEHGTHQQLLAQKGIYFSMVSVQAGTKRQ
# Rattus norvegicus [26] = assay: Neuroprotective activity in stress hyperresponsive Fischer F344 rat assessed as increase in perfusion in hypothalamus at 30 mg/kg, iv administered as bolus dose via catheter by ASL-based MRI analysis; type: functional, organism-based
structure (smiles),measurement,setting,value
CN1Cc2cc(Cl)ccc2-n2c(nnc2[C@H]2CC[C@H](Oc3ccccn3)CC2)C1 [BALOVAPTAN],bioavailability,[1],130%
same,bioavailability,[2],40%
same,Activity,Rattus norvegicus [3],Active
same,Vd,[4],0.5 to 1.3 L/kg
same,Occ,Rattus norvegicus [5],>90%
same,Activity,Rattus norvegicus [6],Active
same,Activity,Rattus norvegicus [7],Active
same,Selectivity ratio,[8],2735
same,Activity,Rattus norvegicus [9],Active
same,Activity,Rattus norvegicus [10],-20%
same,Activity,Rattus norvegicus [11],Dose-dependent effect
same,Activity,Rattus norvegicus [12],Active
same,Selectivity ratio,Homo sapiens,938
same,Activity,Rattus norvegicus [13],-20%
same,Vd,[14],0.5 to 1.3 L/kg
same,Vd,[15],0.5 to 1.3 L/kg
same,Activity,Rattus norvegicus [16],Active
same,Kb,[17],366 nM
same,Selectivity ratio,[18],3888
same,Activity,Rattus norvegicus [19],Active
same,Kb,[20],0.39 nM
same,Activity,Rattus norvegicus [21],Active
same,Activity,Rattus norvegicus [22],Active
same,fraction unbound,[23],0.13
same,Activity,Rattus norvegicus [24],-20%
same,"efflux ratio at 3.5 h, 1 µM",[25],< 2
same,Activity,Rattus norvegicus [26],Active
